Experimental data published in patent US6776987B1, “Enhancement of cardiac chronotropy” (Massachusetts Institute of Technology, priority 1998, dated 2004).

Columns and labels:
[1] = system: cultured fetal murine myocardial cells; assay: In vitro myocyte contractile recruitment: percentage of beating and fast beating GFP-positive transfected myocytes; type: cell-based, B6D2F1 fetal mice
Experimental: (§1) Cultured fetal murine myocardial cells were prepared as previously described (Iwaki, K. et al., J Biol Chem., 265(23):13809-17 (1990); Sen, A. et al., J Clin Invest., 82 (4):1333-8 (1988)). Myocytes from ventricles of 17.5 day old B6D2F1 fetal mice were fragmented with a straight-edge razor. The tissue was then digested with 0.5 mg/ml collagenase II (Worthington Biochemical Corp., Freehold, N.J.) and 1.0 mg/ml pancreatin (Sigma Chemical Co., St. Louis, Mo.) in ADS buffer (116 mM NaCl, 20 mM HEPES, 1 MM NaH2PO4, 5.5 mM glucose, 5.4 mM KCl, 0.8 mM MgSO4, pH 7.4) at 37° C. for 10 min. The cells were centrifuged at 700 g at 4° C. for 5 min. The cells were then plated onto 48-well plates (Falcon Labware, Cockeysville, Md.) precoated with 1% gelatin or onto 25 mm^2 square coverslips precoated with 1% gelatin and 20 μg/ml laminin at a density of 10^5 cell/ml in Dulbecco's modified Eagle's media (DMEM) supplemented with 10% fetal calf serum (FCS), and Streptomycin 100 μg/ml, and Penicillin (500 μg/mL). The myocytes were grown at 37° C. in 5% CO2.
The transfection of myocytes with lipofection was optimized. Myocytes were plated as described above and grown overnight. The β2AR, LacZ, or GFP expression circular vectors (1:2.5 M/M; 0.125 μg total DNA/well) were incubated with Lipofectamine (Life Technologies) (12.5 μl/well) in Opti-Mem I (Life Technologies) reduced serum medium(12.5 μl/well) for 30 min at 25° C. After incubation, DMEM (100 μl/well) was added. The myocyte cultures were washed with PBS twice, the Lipofectamine-DNA mixtures were added, and the cultures incubated at 37° C. After 4 hours, an equal volume of DMEM with 20% FCS was added to the cultures. The cultures were incubated overnight and the medium was changed to DMEM with 10% FCS.
The myocytes were assayed 48 hr after transfection. […]
The percentage of beating myocytes was determined for cells transfected with either the β2AR expression vector or the control construct. […] In addition, the percentage of myocytes that were beating faster than 60 beats per minute (bpm) was determined in identical fashion. […]

[2] = system: cultured fetal murine myocardial cells; assay: Average rate of myocyte contraction by video edge motion detector; type: cell-based, B6D2F1 fetal mice; settings: control transfected cells in the presence of 10^-3 M isoproterenol
Experimental: as §1
The transfection of myocytes with lipofection was optimized. […]
The average rate of myocyte contraction was quantitated by motion detector under both baseline and 10^−3 M isoproterenol. […] The statistical significance of the increased rate of myocyte contraction was determined by Student's t-Test analysis.

Structure (SMILES): CC(C)NCC(O)c1ccc(O)c(O)c1 (stereo not shown) [isoproterenol]
- percentage of myocytes contracting ([1]; control LacZ transfected myocytes, increasing concentrations of isoproterenol (0-10^-3 M)): 69%
- percentage of myocytes with chronotropic rates greater than 60 bpm (fast beating cells) ([1]; control transfected cells at 10^-3 M isoproterenol): 54%
- effect on number of contracting myocytes ([1]; β2AR transfected myocytes, addition of isoproterenol): failed to increase
- average rate of contraction [2]: 75+/−18 bpm
